Biological target: T1, 5-HT2A receptor (Homo sapiens, UniProt P28223)
T1 construct: host or cells: HEK293
Assay: FLIPR Ca2+ flux functional assay, 5-HT2A
Assay type: cell-based
Conditions: agonist activity, Ca2+ flux, HEK293 cells

T1 sequence (P28223 whole entry): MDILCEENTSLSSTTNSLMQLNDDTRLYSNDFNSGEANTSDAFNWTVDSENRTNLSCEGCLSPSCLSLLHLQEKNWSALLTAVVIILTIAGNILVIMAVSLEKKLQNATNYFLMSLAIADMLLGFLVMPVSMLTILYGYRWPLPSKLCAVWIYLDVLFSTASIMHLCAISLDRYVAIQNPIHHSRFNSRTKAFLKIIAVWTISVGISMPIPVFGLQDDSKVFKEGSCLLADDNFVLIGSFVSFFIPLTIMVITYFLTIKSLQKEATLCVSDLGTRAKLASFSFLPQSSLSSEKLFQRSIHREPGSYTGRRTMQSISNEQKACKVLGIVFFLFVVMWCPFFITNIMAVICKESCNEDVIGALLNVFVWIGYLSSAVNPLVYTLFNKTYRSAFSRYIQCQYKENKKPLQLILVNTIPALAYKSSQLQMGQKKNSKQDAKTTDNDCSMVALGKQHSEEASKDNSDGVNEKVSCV

Row | Structure (SMILES) | Emax
1 | CCN(C)CCc1c[nH]c2ccc(OC)c(C)c12 [Example P-37, N-ethyl-2-(5-methoxy-4-methyl-1H-indol-3-yl)-N-methylethan-1-amine] | 80.3%
2 | CCN(C)CCc1c[nH]c2c(C)cc(OC)cc12 [Example P-51, N-ethyl-2-(5-methoxy-7-methyl-1H-indol-3-yl)-N-methylethan-1-amine] | 69.2%

From patent US20250101038A1, “COMPOUNDS” (priority 2021, published 2025)
